Patent US20140154342A1, “SANDALWOOD OIL AND ITS USES RELATED TO SKIN DISORDERS” (SANTALIS PHARMACEUTICALS INC., priority 2011, published 2014)
Values after ≈ are worked out from the molar mass of the structure shown.

How the values were obtained:
MCP-1 = MCP-1 expression in conditioned media of LPS stimulated dermal fibroblasts by ELISA; assay type: cell-based; conditions: at 40-160 μg/ml
IL-6 = IL-6 expression in conditioned media of LPS stimulated dermal fibroblasts by ELISA; assay type: cell-based; conditions: Fibroblast, 24 h, read-out: IC50, suppression of IL-6 expression
Experimental: Dermal fibroblasts were treated with LPS+S1 or S2 at 5-40 μg/ml for 24 h. […] Ibuprofen suppressed IL-6 expression with IC50 of ˜40 μg/ml.

dermal fibroblasts = conditions: 24 h

Question: For CC(C)Cc1ccc(C(C)C(=O)O)cc1 (stereo not drawn) [Ibuprofen], which “suppression of MCP-1 expression” value (MCP-1) is on record?
Answer: ~10 fold

Question: And the IC50 (IL-6)?
Answer: ~40 µg/mL (≈ 194 µM)

Question: And the “concentration with cytotoxic effect (no adverse effects / no cytotoxicity up to the value)” value (dermal fibroblasts)?
Answer: > 160 µg/mL
